Assay [1] addresses T1, isolated recombinant JAK1 kinase domain (Homo sapiens, UniProt P23458).
T1 construct: isolated recombinant JAK1 and JAK2 kinase domain
The assay is described as follows: JAK enzyme assay, JAK1 kinase domain (Caliper LabChip). Conditions: 1.5 nM JAK1, ATP 25 μM, Morrison tight binding model. Format: biochemical. The method in brief: (§1)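 Ki values were obtained by Morrison tight-binding analysis with ATP-competitive correction, Ki=Ki,app/(1+[ATP]/Km,app). Phosphorylated versus total fluorescent JAK3-derived peptide was quantified on a Caliper LabChip. Kinase reactions with the isolated recombinant domains ran 30 min at 22 °C before EDTA quench (50 mM final).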

Assay [2] has as its system JAK1-dependent STAT6 phosphorylation downstream of IL-13 stimulation in BEAS-2B cells. Briefly: JAK1 pathway assay in cell lines: IL-13 p-STAT6 BEAS-2B. Conditions: BEAS-2B human bronchial epithelial cells, 1 hr compound, IL-13 15 min, MSD readout. Format: cell-based. A digest of the protocol:
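Phospho-STAT6 read by MSD electrochemiluminescence in lysates of BEAS-2B cells kept in complete growth medium. Cells were pretreated 1 hr at 37 °C with compound (0.2% DMSO final) and stimulated 15 min with IL-13 at its EC90; EC50 is the concentration halving signal versus DMSO.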

Assay [3] concerns the target T2, isolated recombinant JAK2 kinase domain (Homo sapiens, UniProt O60674).
T2 construct: isolated recombinant JAK1 and JAK2 kinase domain
The assay is described as follows: JAK enzyme assay, JAK2 kinase domain (Caliper LabChip). Format: biochemical. Conditions: 0.2 nM JAK2, ATP 25 μM, Morrison tight binding model. A digest of the protocol:
as §1

pEC50, pKi: −log10 of the molar value.

T2 sequence (O60674 849-1124 limits assumed): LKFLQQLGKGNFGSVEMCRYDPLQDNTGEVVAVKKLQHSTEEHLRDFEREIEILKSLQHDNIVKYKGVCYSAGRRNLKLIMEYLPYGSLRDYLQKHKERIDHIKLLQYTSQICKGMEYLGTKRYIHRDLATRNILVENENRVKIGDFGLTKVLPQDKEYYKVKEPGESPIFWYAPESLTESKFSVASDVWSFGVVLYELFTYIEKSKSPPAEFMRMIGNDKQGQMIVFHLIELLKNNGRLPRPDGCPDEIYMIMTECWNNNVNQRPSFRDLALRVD
T1 sequence (P23458 875-1153 limits assumed): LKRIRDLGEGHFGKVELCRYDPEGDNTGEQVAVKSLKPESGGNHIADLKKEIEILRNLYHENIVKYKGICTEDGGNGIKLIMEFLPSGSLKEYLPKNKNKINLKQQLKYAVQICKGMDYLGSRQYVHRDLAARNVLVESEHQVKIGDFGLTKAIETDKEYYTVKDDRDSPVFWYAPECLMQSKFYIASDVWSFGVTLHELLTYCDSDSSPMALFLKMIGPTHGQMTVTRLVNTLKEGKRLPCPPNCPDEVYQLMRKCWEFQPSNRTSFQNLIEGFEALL

As to `CN1CCN(C2CCN(C(=O)Cn3cc(Nc4nc5c(N6CC(CC#N)(c7cccc(Cl)c7)C6)cccn5n4)cn3)CC2)CC1` [Example 70, 2-[3-(3-chlorophenyl)-1-[2-[[1-[2-[4-(4-methylpiperazin-1-yl)-1-piperidyl]-2-oxo-ethyl]pyrazol-4-yl]amino]-[1,2,4]triazolo[1,5-a]pyridin-8-yl]azetidin-3-yl]acetonitrile], the pKi (in general, −log10 of the Ki, conventionally taken in molar units) in assay [1] is 9.70; in assay [3] it was 9.52. Further, in assay [2], the pEC50 (usually −log10 of the EC50, conventionally taken in molar units) is 8.00.

On to `CCc1cccc(C2(CC#N)CN(c3cccn4nc(Nc5cnn(CC(=O)N6CCN(C)CC6)c5)nc34)C2)c1` [Example 71, 2-[3-(3-ethylphenyl)-1-[2-[[1-[2-(4-methylpiperazin-1-yl)-2-oxo-ethyl]pyrazol-4-yl]amino]-[1,2,4]triazolo[1,5-a]pyridin-8-yl]azetidin-3-yl]acetonitrile], for which the negative-log Ki (pKi) in assay [1] and in assay [3] was 9.52 in each case. This compound also had a pEC50 in assay [2] of 7.59.

Take `N#CCC1(c2cccc(Cl)c2)CN(c2cccn3nc(Nc4cnn(CC(=O)N5CCC(N6CCOCC6)CC5)c4)nc23)C1` [Example 72, 2-[3-(3-chlorophenyl)-1-[2-[[1-[2-(4-morpholino-1-piperidyl)-2-oxo-ethyl]pyrazol-4-yl]amino]-[1,2,4]triazolo[1,5-a]pyridin-8-yl]azetidin-3-yl]acetonitrile]: the negative-log Ki (pKi) in assay [1] and in assay [3] was 9.22 each time. In assay [2], this compound had a pEC50 of 7.62.

As for `CCc1cnn(C2(CC#N)CN(c3cccn4nc(Nc5ccc(CC(=O)N6CCN(C)CC6)cc5)nc34)C2)c1` [Example 73, 2-[3-(4-ethylpyrazol-1-yl)-1-[2-[4-[2-(4-methylpiperazin-1-yl)-2-oxo-ethyl]anilino]-[1,2,4]triazolo[1,5-a]pyridin-8-yl]azetidin-3-yl]acetonitrile], the results for the pKi in assay [1] and in assay [3] were 9.15 and 9.52, respectively. This compound also had a pEC50 in assay [2] of 7.74.

Take `CCc1cnn(C2(CC#N)CN(c3cccn4nc(Nc5ccc(CC(=O)N6CCN(C)CC6)nc5)nc34)C2)c1` [Example 74]: the negative-log Ki (pKi) in assay [1] was 9.40; in assay [3], 8.74. This compound also showed a negative-log EC50 (pEC50) in assay [2] of 7.70.

For the compound `CCc1cnn(C2(CC#N)CN(c3cccn4nc(Nc5cccc(C(=O)N6CCN(C)CC6)c5)nc34)C2)c1` [Example 75, 2-[3-(4-ethylpyrazol-1-yl)-1-[2-[3-(4-methylpiperazine-1-carbonyl)anilino]-[1,2,4]triazolo[1,5-a]pyridin-8-yl]azetidin-3-yl]acetonitrile], the results for the pKi in assay [1] and in assay [3] were 9.40 and 8.70, respectively. For the same compound, the pEC50 in assay [2] was 7.59.

In the case of `CN1CCN(C(=O)Cn2cc(Nc3nc4c(N5CC(CC#N)(CCc6ccccc6)C5)cccn4n3)cn2)CC1` [Example 76], the pKi in assay [1] was 9.52; in assay [3] it was 9.05. In assay [2], this compound had a pEC50 of 7.80.

With `CN1CCN(C(=O)Cn2cc(Nc3nc4c(N5CC(CC#N)(n6cc(-c7ccccc7F)cn6)C5)cccn4n3)cn2)CC1` [Example 77, 2-[3-[4-(2-fluorophenyl)pyrazol-1-yl]-1-[2-[[1-[2-(4-methylpiperazin-1-yl)-2-oxo-ethyl]pyrazol-4-yl]amino]-[1,2,4]triazolo[1,5-a]pyridin-8-yl]azetidin-3-yl]acetonitrile], the negative-log Ki (pKi) in assay [1] was 9.70; in assay [3] it was 9.22. The same compound gave a pEC50 in assay [2] of 7.77.

Consider `CSc1cccc(C2(CC#N)CN(c3cccn4nc(Nc5cnn(CC(=O)N6CCN(C)CC6)c5)nc34)C2)c1` [Example 78], for which the negative logarithm of the Ki (pKi) was 9.52 in assay [1] and 9.05 in assay [3]. This compound also showed a negative-log EC50 (pEC50) in assay [2] of 7.77.

Regarding `CSc1cc(C2(CC#N)CN(c3cccn4nc(Nc5cnn(CC(=O)N6CCN(C)CC6)c5)nc34)C2)ccc1F` [Example 79, 2-[3-(4-fluoro-3-methylsulfanyl-phenyl)-1-[2-[[1-[2-(4-methylpiperazin-1-yl)-2-oxo-ethyl]pyrazol-4-yl]amino]-[1,2,4]triazolo[1,5-a]pyridin-8-yl]azetidin-3-yl]acetonitrile], the pKi in assay [1] is 9.52; in assay [3], 9.15. Moreover, the negative-log EC50 (pEC50) in assay [2] is 7.80.

For `CCN1CCN(C(=O)Cn2cc(Nc3nc4c(N5CC(CC#N)(c6cccc(SC)c6)C5)cccn4n3)cn2)CC1` [Example 80], the results for the negative-log Ki (pKi) in assay [1] and in assay [3] were 9.30 and 9.10, respectively. The compound further had a negative logarithm of the EC50 (pEC50) in assay [2] of 7.29.

For `COCCN1CCN(C(=O)Cn2cc(Nc3nc4c(N5CC(CC#N)(c6cccc(Cl)c6)C5)cccn4n3)cn2)CC1` [Example 81, 2-[3-(3-chlorophenyl)-1-[2-[[1-[2-[4-(2-methoxyethyl)piperazin-1-yl]-2-oxo-ethyl]pyrazol-4-yl]amino]-[1,2,4]triazolo[1,5-a]pyridin-8-yl]azetidin-3-yl]acetonitrile], the pKi in assay [1] is 9.40; in assay [3], 9.00. This compound had a negative-log EC50 (pEC50) in assay [2] of 7.57.

`N#CCC1(c2cccc(Cl)c2)CN(c2cccn3nc(Nc4cnn(CC(=O)N5CCN(CCN6CCOCC6)CC5)c4)nc23)C1` [Example 82, 2-[3-(3-chlorophenyl)-1-[2-[[1-[2-[4-(2-morpholinoethyl)piperazin-1-yl]-2-oxo-ethyl]pyrazol-4-yl]amino]-[1,2,4]triazolo[1,5-a]pyridin-8-yl]azetidin-3-yl]acetonitrile]: the negative logarithm of the Ki (pKi) in assay [1] and in assay [3] was 9.70 throughout. In addition, the pEC50 in assay [2] is 7.66.

With `CN1CCN(C(=O)Cn2cc(Nc3nc4c(N5CC(CC#N)(c6ccc(F)c(Cl)c6)C5)cccn4n3)cn2)CC1` [Example 83, 2-[3-(3-chloro-4-fluoro-phenyl)-1-[2-[[1-[2-(4-methylpiperazin-1-yl)-2-oxo-ethyl]pyrazol-4-yl]amino]-[1,2,4]triazolo[1,5-a]pyridin-8-yl]azetidin-3-yl]acetonitrile], the pKi in assay [1] and in assay [3] was 9.70 each time. The pEC50 in assay [2] is 7.85.

Take `CCc1cnn(C2(CC#N)CN(c3cccn4nc(Nc5ccc(C(=O)N(C)CC6CCN(C)CC6)cc5)nc34)C2)c1` [Example 84, 4-[[8-[3-(cyanomethyl)-3-(4-ethylpyrazol-1-yl)azetidin-1-yl]-[1,2,4]triazolo[1,5-a]pyridin-2-yl]amino]-N-methyl-N-[(l-methyl-4-piperidyl)methyl]benzamide]: the negative-log Ki (pKi) in assay [1] and in assay [3] was 9.52 each time. This compound also showed a negative logarithm of the EC50 (pEC50) in assay [2] of 7.80.

As to `CCc1cnn(C2(CC#N)CN(c3cccn4nc(Nc5ccc(C(=O)N6CC7(CCN(C)CC7)C6)cc5)nc34)C2)c1` [Example 85, 2-[3-(4-ethylpyrazol-1-yl)-1-[2-[4-(7-methyl-2,7-diazaspiro[3.5]nonane-2-carbonyl)anilino]-[1,2,4]triazolo[1,5-a]pyridin-8-yl]azetidin-3-yl]acetonitrile], the negative-log Ki (pKi) in assay [1] was 8.96; in assay [3], 8.03. Besides, in assay [2], the negative-log EC50 (pEC50) was 6.71.

For the compound `CCc1cnn(C2(CC#N)CN(c3cccn4nc(Nc5ccc(C(=O)N6CC7(CCN(C8COC8)CC7)C6)cc5)nc34)C2)c1` [Example 86, 2-[3-(4-ethylpyrazol-1-yl)-1-[2-[4-[7-(oxetan-3-yl)-2,7-diazaspiro[3.5]nonane-2-carbonyl]anilino]-[1,2,4]triazolo[1,5-a]pyridin-8-yl]azetidin-3-yl]acetonitrile], the pKi in assay [1] and in assay [3] was 9.70 in each case. This compound showed a negative-log EC50 (pEC50) in assay [2] of 7.96.

Consider `CN1CCN(C(=O)Cn2cc(Nc3nc4c(N5CC(CC#N)(n6cc(C#N)cn6)C5)cccn4n3)cn2)CC1` [Example 87, 1-[3-(cyanomethyl)-1-[2-[[1-[2-(4-methylpiperazin-1-yl)-2-oxo-ethyl]pyrazol-4-yl]amino]-[1,2,4]triazolo[1,5-a]pyridin-8-yl]azetidin-3-yl]pyrazole-4-carbonitrile], for which the pKi in assay [1] is 9.70; in assay [3], 9.15. This compound showed a negative logarithm of the EC50 (pEC50) in assay [2] of 7.77.

In the case of `CCc1cnn(C2(CC#N)CN(c3cccn4nc(Nc5ccc(C(=O)N(C)CC6CCN(C7COC7)CC6)cc5)nc34)C2)c1` [Example 88, 4-[[8-[3-(cyanomethyl)-3-(4-ethylpyrazol-1-yl)azetidin-1-yl]-[1,2,4]triazolo[1,5-a]pyridin-2-yl]amino]-N-methyl-N-[[1-(oxetan-3-yl)-4-piperidyl]methyl]benzamide], the negative-log Ki (pKi) was 9.40 in assay [1] and 9.00 in assay [3]. In assay [2], this compound gave a pEC50 of 7.46.

`CSc1cccc(C2(CC#N)CN(c3cccn4nc(Nc5cnn(CC(=O)N6CCC(N7CCOCC7)CC6)c5)nc34)C2)c1` [Example 90, 2-[3-(3-methylsulfanylphenyl)-1-[2-[[1-[2-(4-morpholino-1-piperidyl)-2-oxo-ethyl]pyrazol-4-yl]amino]-[1,2,4]triazolo[1,5-a]pyridin-8-yl]azetidin-3-yl]acetonitrile]: the pKi is 9.40 in assay [1] and 9.70 in assay [3]. The compound further showed a pEC50 in assay [2] of 7.66.

As for `CCc1cnn(C2(CC#N)CN(c3cccn4nc(Nc5ccc(C(=O)N6CCN(C)CC6)c(F)c5)nc34)C2)c1` [Example 91, 2-[3-(4-ethylpyrazol-1-yl)-1-[2-[3-fluoro-4-(4-methylpiperazine-1-carbonyl)anilino]-[1,2,4]triazolo[1,5-a]pyridin-8-yl]azetidin-3-yl]acetonitrile], the pKi in assay [1] is 9.40; in assay [3], 9.05. This compound had a negative logarithm of the EC50 (pEC50) in assay [2] of 6.67.

For the origin of these results see patent US20230242530A1, “8-(AZETIDIN-1-YL)-[1,2,4]TRIAZOLO[1,5-A]PYRIDINYL COMPOUNDS, COMPOSITIONS AND METHODS OF USE THEREOF” (Genentech, Inc., priority 2016, published 2023).
